Measured values: PubChem BioAssay (NCI)
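All cell lines were grown in 96-well plates and treated with compound for 48 hours. At the GI50, growth is halved. TGI marks complete inhibition of growth.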

Columns and labels:
Assay in all cases: NCI tumour cell line growth inhibition, 48 h
EKVX NSCLC = tested on: EKVX NSCLC
SW-620 colon = tested on: SW-620 colon
NCI-H226 lung = tested on: NCI-H226 lung
HS 578T breast = tested on: HS 578T breast
786-0 renal = tested on: 786-0 renal
MDA-MB-435 = tested on: MDA-MB-435
UACC-257 melanoma = tested on: UACC-257 melanoma
NCI-H522 lung = tested on: NCI-H522 lung
OVCAR-3 ovarian = tested on: OVCAR-3 ovarian
MDA-MB-231 breast = tested on: MDA-MB-231 breast
UO-31 renal = tested on: UO-31 renal
KM12 colon = tested on: KM12 colon
SK-MEL-28 melanoma = tested on: SK-MEL-28 melanoma
SR leukemia = tested on: SR leukemia
HCT-15 colon = tested on: HCT-15 colon
HT29 colon = tested on: HT29 colon
COLO 205 colon = tested on: COLO 205 colon
CAKI-1 renal = tested on: CAKI-1 renal
MALME-3M melanoma = tested on: MALME-3M melanoma
BT-549 breast = tested on: BT-549 breast
LOX IMVI melanoma = tested on: LOX IMVI melanoma
SF-539 CNS = tested on: SF-539 CNS
DU-145 prostate = tested on: DU-145 prostate
T-47D breast = tested on: T-47D breast
CCRF-CEM leukemia = tested on: CCRF-CEM leukemia
A549 NSCLC = tested on: A549 NSCLC
PC-3 prostate = tested on: PC-3 prostate
HCT-116 colon = tested on: HCT-116 colon
SNB-75 CNS = tested on: SNB-75 CNS

COc1cc(C2CC(c3ccc4c(c3)OCO4)=NN2C=O)cc(OC)c1OC (configuration not stated)
TGI (EKVX NSCLC): > 100 µM | GI50 (SW-620 colon): 1.21 µM | TGI (SW-620 colon): > 100 µM | GI50 (NCI-H226 lung): 8.06 µM | TGI (NCI-H226 lung): > 100 µM | GI50 (HS 578T breast): 2.43 µM | TGI (HS 578T breast): 28.5 µM | GI50 (786-0 renal): 5.26 µM | TGI (786-0 renal): > 100 µM | GI50 (MDA-MB-435): 0.26 µM | TGI (MDA-MB-435): 1.13 µM | GI50 (UACC-257 melanoma): > 20.3 µM | TGI (UACC-257 melanoma): > 100 µM | GI50 (NCI-H522 lung): 1.22 µM | TGI (NCI-H522 lung): > 27.6 µM | GI50 (OVCAR-3 ovarian): 0.965 µM | TGI (OVCAR-3 ovarian): 3.25 µM | GI50 (MDA-MB-231 breast): > 25.3 µM | TGI (MDA-MB-231 breast): > 100 µM | GI50 (UO-31 renal): 3.81 µM | TGI (UO-31 renal): > 100 µM | GI50 (KM12 colon): 1.17 µM | TGI (KM12 colon): > 100 µM | GI50 (SK-MEL-28 melanoma): 6.36 µM | TGI (SK-MEL-28 melanoma): > 100 µM | GI50 (SR leukemia): 0.52 µM | TGI (SR leukemia): > 100 µM | GI50 (HCT-15 colon): 1.58 µM | TGI (HCT-15 colon): > 100 µM | GI50 (HT29 colon): 0.467 µM | TGI (HT29 colon): > 100 µM | GI50 (COLO 205 colon): 1.3 µM | TGI (COLO 205 colon): 5.91 µM | GI50 (CAKI-1 renal): 1.25 µM | TGI (CAKI-1 renal): > 100 µM | GI50 (MALME-3M melanoma): 1.93 µM | TGI (MALME-3M melanoma): > 100 µM | GI50 (BT-549 breast): 5.21 µM | TGI (BT-549 breast): > 100 µM | GI50 (LOX IMVI melanoma): 1.27 µM | TGI (LOX IMVI melanoma): > 100 µM | GI50 (SF-539 CNS): 2.06 µM | TGI (SF-539 CNS): 13 µM | GI50 (DU-145 prostate): 2.63 µM | TGI (DU-145 prostate): > 26.1 µM | GI50 (T-47D breast): 3.34 µM | TGI (T-47D breast): > 100 µM | GI50 (CCRF-CEM leukemia): 2.48 µM | TGI (CCRF-CEM leukemia): > 100 µM | GI50 (A549 NSCLC): > 24.5 µM | TGI (A549 NSCLC): > 100 µM | GI50 (PC-3 prostate): 4.92 µM | TGI (PC-3 prostate): > 100 µM | GI50 (HCT-116 colon): 1.52 µM | TGI (HCT-116 colon): > 100 µM | GI50 (SNB-75 CNS): 1.13 µM | TGI (SNB-75 CNS): 5.43 µM
